Measured values taken from patent publication US7015248B2, “Use of abietic acid and derivatives thereof for inhibiting cancer” (Xiamen Ever-Health Bio-Tech. Co. Ltd, priority 2002, dated 2006).
Read-outs that look alike come from different tables or passages of the source.

Assays:
[1] = test system: HeLa cells, a human epithelioid cervical carcinoma cell line; test: video-enhanced DIC microscopy of cell morphology, HeLa cells; type: cell-based
Method: (§1) For evaluation of the biological activities of abietic acid on mammalian cells, a time-lapsed recording using video-enhanced DIC microscopy on a variety of cultured cells, including cancerous and non-cancerous cell lines, before and after addition of abietic acid, was performed.
(§2) Abietic acid may be extracted by any conventional methods. In one embodiment of the invention, abietic acid was extracted according to the method described in Luong J H et al., 1999, Electrophoresis. 20(7): 1546–54, and an abietic acid stock solution at a concentration of 150 μg/ml was prepared subsequently.
HeLa cells, a human epithelioid cervical carcinoma cell line, were cultured in a standard medium under standard conditions. The HeLa cells were trypsinized and a cell suspension at a concentration of 10^5 cells per milliliter of medium was prepared therefrom. The cell suspension was poured into a 22×22 mm coverglass and treated without abietic acid or with the abietic acid stock solution to achieve a final concentration of 0.3 μg/ml (1/500 dilution), 0.15 μg/ml (1/1000 dilution) or 0.03 μg/ml (1/5000 dilution), respectively.
(§3) It has been known that the morphology of a cell reflects the healthy condition of the cell. For instance, once a cell, which is normally attached to a substrate with a flat morphology, swells and becomes round in morphology, it means that the condition of the cell turns disadvantageous and the cell may stop the growth and be dead soon.

[2] = test system: MCF-7 breast cancer cell line; test: combination with taxol against MCF-7 cells; type: cell-based; settings: in combination with taxol
[3] = test system: plasma membrane of the cell; test: electrophysiological experiments and dye-permeability assays; type: cell-based
Method: In addition, to further study the mechanisms underlying the swelling phenomenon of a cell, electrophysiological experiments and dye-permeability assays were conducted to measure the permeability of a plasma membrane of the cell.

[4] = test system: prostaglandin E2; settings: lipopolysaccharide-treated macrophages; Fernandez et al., 2001; cited from earlier work
[5] = MTT (mitochondrial activity) assay of cell proliferation; type: cell-based
Excerpt: A MTT (mitochondrial activity) assay was used to determine a cell proliferation.

[6] = target: lipoxygenase pathway; settings: Ulusu et al., 2002; read-out: IC50 of inhibition of lipoxygenase pathway; cited from earlier work
[7] = test system: breast cancer cells such as MCF-7 or T-47D; settings: Mellanen et al., 1996; cited from earlier work
[8] = test system: MCF-7 breast cancer cell line; type: in vivo; settings: 0.02667 mg per gram body weight by gastric pipe per two days; for Average maximum diameter: 8 mice
Method: Eighty Balb/c-nu/nu female nude mice, supplied by National Laboratory Animal Center in the ROC (Taiwan), four-week old, weight about 18 to 20 g, free of pinworm infection, were housed in the laboratories of the National Yang-Ming University, Taipei, ROC (Taiwan). Clear water and feeds were normally provided. The litters were replaced with new ones per three days. On the other hand, a MCF-7 breast cancer cell line was cultured under standard conditions.
Since the nude mice were five weeks old, the nude mice were intramuscularly injected with 1.7 mg of estradiol valerate at their leg regions. On the other hand, the MCF-7 cells were treated with estradiol for 24 hours, and then trypsinized, centrifuged and recovered in the Minimum Essential Medium (MEM) medium to achieve a concentration of 2×10^7 cell/ml.
After two days following the intramuscular injection of estradiol valerate, the nude mice were subcutaneously injected with 500 μl of the estradiol-treated MCF-7 cells (2×10^7 cell/ml) at their back regions. Once injection, the back regions swelled but became even later.
After three weeks following the injection of the MCF-7 cells, a subcutaneous tumor of 2 mm in a maximum diameter was developed at the backs of the nude mice.
These tumor containing nude mice were divided into two groups, each including 8 mice. One of the two groups were fed normally as a control group. The mice of the other group were fed with abietic acid at a dosage of 0.02667 mg per gram of the body weight of the nude mice by a gastric pipe per two days for a period of more than 12 weeks (experimental group).
The maximum diameter of the tumor on the back of each nude mouse of the control group and the experimental group were recorded, as shown in Table 1 and FIG. 3.

[9] = test system: HepG2 cells, a human heptocellular carcinoma cell line; test: DIC microscopy of cell morphology, HepG2 cells; type: cell-based; settings: for morphology of HepG2 cells: 24-hour incubation
Method: as §1, §2
HepG2 cells, a human heptocellular carcinoma cell line, were cultured in a standard medium under standard conditions. The HepG2 cells were trypsinized and a cell suspension at a concentration of 10^5 cells per milliliter of medium was prepared therefrom. The cell suspension was poured into a 22×22 mm coverglass and treated without abietic acid or with 0.3, 0.15 or 0.03 μg/ml abietic acid, respectively, as described above.
as §3

[10] = test system: Detroit 551 normal fibroblast cells; test: DIC microscopy of cell morphology, Detroit 551 normal fibroblast cells; type: cell-based
Method: as §1, §2
Detroit 551 normal fibroblast cells were treated without abietic acid or with abietic acid, as described above. The morphology of the normal fibroblast cells was affected when treated with 0.15 and 0.3 μg/ml abietic acid.
as §3

[11] = test system: Hep-G2 human hepatocellular carcinoma cell line; test: combination with mitomycin C on Hep-G2 cells; type: cell-based; settings: in combination with mitomycin C

CC(C)C1=CC2=CC[C@@H]3[C@](C)(CCC[C@@]3(C)C(=O)O)[C@H]2CC1 [abietic acid]
morphology of HeLa cells ([1]; 0.03, 0.15 and 0.3 μg/ml, 24-hour incubation): serious swelling phenomenon
concentration effective to induce a swelling phenomenon ([1]; HeLa cell line): 0.03 µg/mL
growth of cancer cells after swelling ([1]; HeLa cells, about 24 hours exposure, relatively low concentration): inhibition of the growth and the death of the cancer cells
effect on inhibitory activity of taxol [2]: enhance the inhibitory activity of taxol
permeability of a plasma membrane [3]: direct effect on influx and efflux of chemicals across the cell membrane
production of prostaglandin E2 [4]: inhibit the production of the inflammatory mediator, prostaglandin E2
cell proliferation / mitosis ([5]; abietic acid by itself): inhibit cell mitosis in a dose-dependent manner
effect on killing effects of anti-cancer drugs ([5]; in combination with a variety of anti-cancer drugs): significantly enhanced the killing effects of a variety of anti-cancer drugs
IC50 [6]: 29.5 ± 1.29 µM
estrogenic effect [7]: estrogenic
average maximum diameter of the tumor in comparison with mice without treatment ([8]; 12 weeks): significantly reduced
survival of mice to the end of the period ([8]; more than 12 weeks): all the mice were alive
Average maximum diameter ([8]; week 1): 0.587 cm
Average maximum diameter ([8]; week 3): 0.675 cm
Average maximum diameter ([8]; week 6): 0.700 cm
Average maximum diameter ([8]; week 9): 0.787 cm
Average maximum diameter ([8]; week 12): 0.800 cm
morphology of HepG2 cells ([9]; 0.03 μg/ml): different morphology
morphology of HepG2 cells ([9]; 0.15 and 0.3 μg/ml): swelled
concentration effective to induce a swelling phenomenon ([9]; HepG2 cell line): 0.03 µg/mL
growth of cancer cells after swelling ([9]; HepG2 cells, about 24 hours exposure, relatively low concentration): inhibition of the growth and the death of the cancer cells
morphology of normal fibroblast cells ([10]; 0.03 μg/ml): normal and flat morphology
morphology of normal fibroblast cells ([10]; 0.15 and 0.3 μg/ml): affected
concentration that affects the morphology of a normal fibroblast cell ([10]; Detroit 551): higher than 0.15 μg/ml
morphology and growth of normal fibroblast cells ([10]; about 24 hours exposure at the same concentration): remained flat in morphology and grew well
effect on efficacy of mitomycin C on growth [11]: accelerate the efficacy of mitomycin C
